Like-named read-outs stand apart in the source and are kept apart here.
Tests used:
human CAR (hCAR) = molecular target: T1, human CAR (hCAR) (Homo sapiens, UniProt Q14994); conditions: cited from earlier work
T1 sequence (Q14994 1-352): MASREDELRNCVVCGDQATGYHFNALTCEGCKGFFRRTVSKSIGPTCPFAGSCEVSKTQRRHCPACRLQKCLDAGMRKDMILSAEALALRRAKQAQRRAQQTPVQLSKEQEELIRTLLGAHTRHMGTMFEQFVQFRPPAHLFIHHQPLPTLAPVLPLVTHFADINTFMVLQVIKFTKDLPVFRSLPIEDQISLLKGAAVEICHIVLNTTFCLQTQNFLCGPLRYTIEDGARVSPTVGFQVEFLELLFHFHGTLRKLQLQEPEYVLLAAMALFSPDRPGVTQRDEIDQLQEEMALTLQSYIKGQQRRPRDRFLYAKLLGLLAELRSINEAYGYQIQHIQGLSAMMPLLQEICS

mouse CAR (mCAR) = molecular target: T2, mouse CAR (mCAR) (Mus musculus, UniProt O35627); conditions: cited from earlier work
T2 sequence (O35627 1-358): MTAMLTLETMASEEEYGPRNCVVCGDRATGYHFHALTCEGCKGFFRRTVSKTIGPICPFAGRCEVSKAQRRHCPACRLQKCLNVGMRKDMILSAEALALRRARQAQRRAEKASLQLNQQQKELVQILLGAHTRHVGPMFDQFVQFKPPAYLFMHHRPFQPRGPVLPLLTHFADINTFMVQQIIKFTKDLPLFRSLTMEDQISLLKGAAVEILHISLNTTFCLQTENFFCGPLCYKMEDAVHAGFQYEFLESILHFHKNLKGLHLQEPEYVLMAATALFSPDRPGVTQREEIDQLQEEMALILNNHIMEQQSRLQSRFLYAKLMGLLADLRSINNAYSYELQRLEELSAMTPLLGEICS

[1] = tested on: Mixed primary murine intestinal cultures; conditions: 3 uM, 2 hours, GLP-1 active ELISA kit, Millipore, cited from earlier work
human PXR (hPXR) = molecular target: T3, human PXR (hPXR) (Homo sapiens, UniProt O75469); conditions: cited from earlier work
T3 sequence (O75469 1-434): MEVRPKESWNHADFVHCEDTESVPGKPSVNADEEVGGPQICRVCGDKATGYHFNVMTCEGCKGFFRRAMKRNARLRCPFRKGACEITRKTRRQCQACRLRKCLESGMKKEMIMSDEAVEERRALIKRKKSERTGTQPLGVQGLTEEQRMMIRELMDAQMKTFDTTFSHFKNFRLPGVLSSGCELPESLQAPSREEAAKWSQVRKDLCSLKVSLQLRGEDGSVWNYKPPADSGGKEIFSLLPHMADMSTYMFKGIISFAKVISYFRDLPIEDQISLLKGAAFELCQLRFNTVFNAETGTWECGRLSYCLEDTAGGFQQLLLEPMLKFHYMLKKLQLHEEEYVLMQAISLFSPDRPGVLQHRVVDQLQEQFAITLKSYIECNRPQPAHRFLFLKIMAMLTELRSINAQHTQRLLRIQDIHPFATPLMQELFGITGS

mouse PXR (mPXR) = molecular target: T4, mouse PXR (mPXR) (Mus musculus, UniProt O54915); conditions: cited from earlier work
T4 sequence (O54915 1-431): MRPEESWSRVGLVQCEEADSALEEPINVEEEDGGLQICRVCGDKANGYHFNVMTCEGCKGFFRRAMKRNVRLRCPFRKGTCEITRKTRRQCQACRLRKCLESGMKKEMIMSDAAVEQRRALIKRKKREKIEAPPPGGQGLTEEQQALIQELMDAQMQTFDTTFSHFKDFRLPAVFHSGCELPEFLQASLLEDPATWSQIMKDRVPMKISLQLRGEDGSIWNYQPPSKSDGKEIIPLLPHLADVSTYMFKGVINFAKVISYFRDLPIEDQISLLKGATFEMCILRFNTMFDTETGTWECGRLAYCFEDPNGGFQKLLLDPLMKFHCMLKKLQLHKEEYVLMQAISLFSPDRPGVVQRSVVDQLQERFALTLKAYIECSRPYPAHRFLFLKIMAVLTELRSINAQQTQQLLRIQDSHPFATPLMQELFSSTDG

CYP3A4 [2] = tested on: CYP3A4
CYP3A4 [3] = tested on: CYP3A4; remark: listed apart in the source
MDR1 (P-gp) [4] = molecular target: T5, MDR1 (P-gp) (Homo sapiens, UniProt P08183); conditions: 22 μM
T5 sequence (P08183 whole entry): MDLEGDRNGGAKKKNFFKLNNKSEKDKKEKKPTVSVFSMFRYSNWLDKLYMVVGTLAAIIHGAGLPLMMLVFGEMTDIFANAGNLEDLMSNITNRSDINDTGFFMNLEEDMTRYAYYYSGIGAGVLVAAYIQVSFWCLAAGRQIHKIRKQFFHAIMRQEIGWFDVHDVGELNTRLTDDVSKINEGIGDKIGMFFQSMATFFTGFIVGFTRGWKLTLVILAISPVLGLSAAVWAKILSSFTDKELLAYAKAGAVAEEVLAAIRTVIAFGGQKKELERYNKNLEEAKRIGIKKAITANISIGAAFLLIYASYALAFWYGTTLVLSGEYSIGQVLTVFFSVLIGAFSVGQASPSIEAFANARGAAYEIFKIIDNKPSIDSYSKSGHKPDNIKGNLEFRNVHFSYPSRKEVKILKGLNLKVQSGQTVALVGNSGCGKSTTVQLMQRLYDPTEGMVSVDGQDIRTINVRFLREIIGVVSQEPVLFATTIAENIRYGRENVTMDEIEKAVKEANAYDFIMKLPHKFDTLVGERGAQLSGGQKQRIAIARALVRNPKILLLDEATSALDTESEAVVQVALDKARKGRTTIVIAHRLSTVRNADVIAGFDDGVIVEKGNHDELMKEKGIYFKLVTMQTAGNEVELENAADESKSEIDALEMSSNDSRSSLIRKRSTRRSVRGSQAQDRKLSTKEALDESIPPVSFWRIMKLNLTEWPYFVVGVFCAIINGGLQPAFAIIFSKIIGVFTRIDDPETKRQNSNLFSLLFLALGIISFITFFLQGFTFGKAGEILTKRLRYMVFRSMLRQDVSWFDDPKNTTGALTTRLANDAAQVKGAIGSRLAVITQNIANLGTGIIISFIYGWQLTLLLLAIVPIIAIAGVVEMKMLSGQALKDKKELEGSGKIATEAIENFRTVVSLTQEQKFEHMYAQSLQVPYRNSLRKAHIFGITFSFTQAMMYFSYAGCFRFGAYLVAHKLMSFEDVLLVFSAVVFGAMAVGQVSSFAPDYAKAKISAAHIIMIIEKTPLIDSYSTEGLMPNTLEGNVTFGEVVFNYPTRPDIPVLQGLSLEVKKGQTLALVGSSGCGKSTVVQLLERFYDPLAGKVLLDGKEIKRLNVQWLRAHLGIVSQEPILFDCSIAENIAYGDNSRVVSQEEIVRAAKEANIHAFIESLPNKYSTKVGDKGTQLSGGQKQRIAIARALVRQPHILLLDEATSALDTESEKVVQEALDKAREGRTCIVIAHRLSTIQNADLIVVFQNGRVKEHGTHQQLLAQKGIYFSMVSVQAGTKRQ
Method: (§1) To evaluate the applicability of this system for the studies of pharmacology related questions we assessed the presence and localization of major intestinal drug transporters in Duodenum-Chips established from the tissue of 3 different donors by qRT-PCR and immunofluorescent imaging.
(§2) The transporter activity of MDR-1/P-gp was assessed using the MDR1 Efflux Assay Kit (e.g., ECM910, Millipore), as per manufacturer's instructions. […] Intracellular accumulation of dye, was detected by fluorescent imaging (Olympus IX83) and measured in the presence and absence of MDR-1 specific inhibitor vinblastine (22 μM). At least three independent experiments were performed for Caco2 Intestine-Chips and Duodenum-Chips, each using chips established from a different donor of biopsy-derived organoids. At least three different chips were used per condition, images of each were taken at three different fields of view, digitally processed and quantified using Fiji software.

MDR1 (P-gp) [5] = molecular target: T5, MDR1 (P-gp); conditions: 22 μM; remark: listed apart in the source
Method: as §1, §2

Colon Intestine-Chip = assay: Barrier disruption/rescue assay in organoid-derived Colon Intestine-Chip (apparent permeability, 3 kDa dextran); format: cell-based, human
Method: As one example, to evaluate the integrity of the intestinal barrier 3 kDa Cascade Blue dextran (Sigma, D7132) was added to the epithelial compartment of the Duodenum-Chip at 0.1 mg/ml on the day of connecting a microfluidic device to flow, e.g., see exemplary timelines. Effluents of the endothelial compartment were sampled 3 hours after the addition of a dye, up to 24 hours, up to 48 hours, up to 72 hours, or at 48 hour intervals until the end of the assay, in order to determine the concentration of dye that has diffused through the membrane.
The apparent paracellular permeability (Papp) was calculated based on a standard curve and using the following formula: […]
In some embodiments, a microfluidic device as described herein, is used for an in vitro assay for evaluating a substance for its ability or efficacy of ‘rescuing’ barrier function. In some embodiments, a human intestine chip is used for an in vitro assay for evaluating a substance for ‘rescuing’ barrier function. In some embodiments, a human intestine chip is an organoids-derived colonic intestine chip. In some embodiments, Organoids-derived Colonic Epithelial Cells are seeded into one channel with Intestinal Microvascular Endothelial Cells seeded into an opposing channel separated by a membrane, as described herein. After seeding cells on Day 0, flow was initiated on Day 1 with stretch initiated on Day 2.
The following is an exemplary timeline for one embodiment of a Barrier Disruption/Rescue Assay, e.g. rescuing 3 hours of injury by a peptide substance, e.g. AT1002 (synthetic peptide H-FCIGRL-OH of ZO toxin) with AT1001, larzaride acetate. Day −5: experiment preparation (prep), as described herein; Day 0: Intestine chip seeding both cells types, epithelial and endothelial; Day 1 starting flow; Day 2 starting stretch, in some embodiments starting […] at lower levels then increasing up to 10% over 24 hours (1 day), over 2 days, or over 3 days; Day 5; starting Injury/Rescue Assay: using a known reversible injury inducing substance: Injure period starting at 0 hour continuing up to 3 hours, or more. Day 6 first readout time point (24 hours); Day 7, in some embodiments, Fix cells at 48 hours post injury; Days 7-21, in some embodiments, initiate at least one Endpoint Assay for analysis; and in some embodiments Day 21 is a report-out of assay. Exemplary check timepoints for readouts: 0, 24 and 48 hours after initiation of injury inducing substance. In some embodiments, Endpoint Assays and Analysis are done on Day 14. In some embodiments, Endpoint Assays and Analysis are done on Day 21. In some embodiments, a test substance for ‘rescuing’ damage may be evaluated within 14 days. In some embodiments, a test substance for ‘rescuing’ damage may be evaluated within 21 days from the beginning of cell culturing. […]

Caco-2 cell monolayers = conditions: cited from earlier work
Colon-Chip = assay: IL-13 mediated enrichment of tuft cells in Colon-Chip; format: cell-based, human; conditions: 10 ng/ml
Method: Stimulation: Exposure of Colon-Chips and ileal and colonic organoids (serve as a control) to 10 ng/ml of IL-13.
Read-outs: mRNA expression of genes specific for Tuft cells: Trpm5, ChAT, Dclkl and for goblet cells: Muc2, TFF3, etc., (to assess concomitant expansion of goblet cell populations) at day 2, 3 and 6 post-treatment corresponding to day 4, 5 and 8 of Colon-Chip culture.
IL-13 treatment has no negative impact of Colon-Chip tissue morphology and barrier function.
Summary of IL-13 mediated enrichment of the tuft cells in Colon-Chip. […] We performed stimulation of Colon-Chips with IL-13 in order to drive tuft cell differentiation and enrich for the presence of these cells in Intestine-Chip platform. […] In some embodiments, Gene expression levels of Tuft cell (Trpm5, ChAT) and goblet cell (Muc2, TFF3) specific markers are evaluated.

Clc1ccc(-c2nc3sccn3c2C=NOCc2ccc(Cl)c(Cl)c2)cc1 [CITCO, 6-(4-chlorophenyl)imidazo[2,1-b][1,3]thiazole-5-carbaldehyde-O-(3,4-dichlorobenzyl)oxime]
agonism at human CAR (human CAR (hCAR)): strong agonist | agonism at mouse CAR (mouse CAR (mCAR)): not mouse CAR

Cc1onc(-c2ccccc2Cl)c1C(=O)N(C)c1ccc(Cl)cc1 [GPBAR-A]
GLP-1 Concentration (fold increase) in the presence of 10 mM glucose ([1]; in the presence of 10 mM glucose): 3.5 fold increase | GLP-1 Concentration (fold increase) [1]: 2.5 fold increase

CC(=O)[C@H]1[C@H](C#N)C[C@H]2[C@@H]3CC=C4C[C@@H](O)CC[C@]4(C)[C@H]3CC[C@@]21C [PCN, 5-pregnen-3β-ol-20-one-16α-carbonitrile]
agonism at human PXR (human PXR (hPXR)): poor agonist | agonism at mouse PXR (mouse PXR (mPXR)): potent mPXR agonist

CCOP(=O)(OCC)C(=Cc1cc(C(C)(C)C)c(O)c(C(C)(C)C)c1)P(=O)(OCC)OCC [SR12813]
agonism at mouse PXR (mouse PXR (mPXR)): not for mouse PXR

Clc1cnc(Oc2ccc(Oc3ncc(Cl)cc3Cl)cc2)c(Cl)c1 [TCPOBOP, 1,4-bis-[2-(3,5-dichloropyridyloxy)]benzene,3,3′.5.5′-tetrachloro-1,4-bis(pyridyloxy)benzene]
selectivity mCAR versus hCAR (mouse CAR (mCAR)): more selective for mCAR than hCAR

C=C1/C(=C\C=C2/CCC[C@]3(C)[C@@H]([C@H](C)CCCC(C)(C)O)CC[C@@H]23)C[C@@H](O)C[C@@H]1O [VD3, 1,25-dihidroxyvitamin D3]
CYP3A4 drug metabolism activity (CYP3A4 [2]; Duodenum Intestine-Chip): significantly increased | CYP3A4 protein levels (CYP3A4 [2]; Duodenum Intestine-Chip): significantly increased | induction of CYP3A4 expression relative to DMSO-treated controls (CYP3A4 [2]; Duodenum-Chip, average of 3 donors, 20 μM RIF or 100 nM VD3, 48 h): 4.1 fold | CYP3A4 induction (in words) (CYP3A4 [3]; Caco-2 Intestine-Chip): induced | metabolic activity of CYP3A4 (CYP3A4 [3]; Caco-2 Intestine-Chip): no effect | CYP3A4 induction (in words) (CYP3A4 [3]; Caco-2 Intestine-Chip, listed as Vitamin D3): showed induction | CYP3A4 protein level (Western Blot) (CYP3A4 [3]; Caco-2 cells after inducer treatment): below the limit of detection | enhancement of CYP3A4 mRNA level (CYP3A4 [3]; Caco-2 cells, 100 nM, 48 h): 316 fold

CC[C@]1(O)C[C@@H]2CN(CCc3c([nH]c4ccccc34)[C@@](C(=O)OC)(c3cc4c(cc3OC)N(C)[C@H]3[C@@](O)(C(=O)OC)[C@H](OC(C)=O)[C@]5(CC)C=CCN6CC[C@]43[C@@H]65)C2)C1 [vinblastine]
increase in intracellular accumulation of rhodamine 123 (MDR1 (P-gp) [4]): 1.84 fold | increase in intracellular accumulation of rhodamine 123 (MDR1 (P-gp) [5]): 2.14 fold

H-FCIGRL-OH [AT1002]
injury effect on barrier (apparent permeability, 3 KDa Dextran Cascade Blue) (Colon Intestine-Chip; organoid-derived colon chip): barrier disruption in a concentration-dependent manner | lucifer yellow permeability (Caco-2 cell monolayers; Caco-2 cell monolayers): increase | transepithelial electrical resistance (TEER) (Caco-2 cell monolayers; Caco-2 cell monolayers): reversible reduction | cytotoxicity (Caco-2 cell monolayers): no overt cytotoxicity

IFN-gamma: injury inducing cytokine
permeability of Colon Intestine Chip (Colon Intestine-Chip; 10 ng/ml - 50 ng/ml, 48 hours, 3 KDa Dextran Cascade Blue): increases post 48 hours independent of IFN-gamma concentrations tested

IL-13: cytokine used to drive tuft cell differentiation
effect on Colon-Chip morphology and barrier function (Colon-Chip): no negative effect | tuft cell population (Colon-Chip): Enrichment

Larazotide acetate
restoration of barrier integrity/function injured by IFN-gamma (Colon Intestine-Chip; 12.5 mM, IFN-gamma 25 ng/ml, 3 KDa Dextran Texas Red, N=5): partially restored/rescued | restore/rescue of barrier integrity (Colon Intestine-Chip; Colon Intestine-Chip exposed to AT1002, 20 mM, after 24 hours, N=5): up to 100% | increase in TJ permeability elicited by basolaterally applied cytokines (Caco-2 cell monolayers; apically applied): inhibited

From US20200224136A1, “INTESTINE-CHIP: DIFFERENTIAL GENE EXPRESSION MODEL” (priority 2019, published 2020)
